Measurements taken from patent US8501166B2, “Pyrimidinyl indole compounds” (Hutchison Medipharma Limited, priority 2010, dated 2013).
Counter-ions that a name gives are not always drawn. Like-named read-outs stand apart in the source and are kept apart here.

Experiments:
[1] = system: BxPC-3 cells; assay: Cell viability test, combination study, BxPC-3; format: cell-based, human; conditions: for inhibition at 2.5 µM / inhibition at 25 µM: Homo sapiens, BXPC-3, 72 h, read-out: Ave. Inhibition rate
Experimental: To evaluate biological activity of a compound in vitro, the cell viability test is applied, in which, IKKβ receptor plays an important role in cell survival and proliferation. Once the IKKβ pathway is blocked by inhibitors, a cell can go through apoptosis or death. The cell viability test provides information on cell survival after treatment with IKK inhibitors.
BxPC-3 cells (ATCC #CRL-1687; human pancreatic cancer cell line) are grown in Roswell Park Memorial Institute (RPMI) 1640 media (Gibco #A10491-01) supplemented with 10% fetal bovine serum (FBS) (Gibco #10099-141). Skov3-luc cells (ATCC, human ovarian carcinoma cell line) are grown in McCoy's 5a medium (Gibco#16600) supplemented with 10% FBS (Gibco#10099-141). For compound testing, BxPc-3 and Skov3-Luc cells are seeded at 2000 and 5000 cells/well respectively in 100 μL of corresponding media specified above for each cell line in 96-well plates 20 h prior to treatment. Cells are treated with a test compound at eight different concentrations in the presence of 0.5% DMSO for 72 h. Cell death in each well is determined by the addition of 20 μL of the One Solution Reagent (CELLTITER 96® AQueous One Solution Cell Proliferation Assay, Promega #G3580). After 2-4 h of incubation at 37° C., optical densities at 492 nm are measured with a microplate reader Inhibition of cell viability is determined by comparison to the control cells treated in the absence of a test compound.
For the combination study of the compound with other antitumor agents, BxPc-3 and Skov3-Luc cells are seeded at 2000 and 5000 cells/well respectively in 100 μL corresponding media specified above for each cell line in 96-well plates 20 h prior to the treatment. The cells are treated with the test compound at a number of concentrations for 30 minutes and then exposed to 5 ng/mL TNFα or 0.15-0.6 uM of VCR (vincristine sulfate) for an additional 72 hours. Cell death in each well is determined by the addition of 20 μL of the One Solution Reagent (CELLTITER 96® AQueous One Solution Cell Proliferation Assay, Promega #G3580). After 2-4 h of incubation at 37° C., optical densities at 492 nm are measured with a microplate reader Inhibition of cell viability is determined by comparison to the control cells treated in the absence of a test compound. For example, the results of the combination study with Example 1 are specially detailed in Table 2.

[2] = target: T1, IKKβ (Homo sapiens, UniProt O14920); assay: IKKβ kinase assay (Z′-LYTE Assay Kit-Ser/Thr 5 Peptide); format: biochemical
T1 sequence (O14920 1-756): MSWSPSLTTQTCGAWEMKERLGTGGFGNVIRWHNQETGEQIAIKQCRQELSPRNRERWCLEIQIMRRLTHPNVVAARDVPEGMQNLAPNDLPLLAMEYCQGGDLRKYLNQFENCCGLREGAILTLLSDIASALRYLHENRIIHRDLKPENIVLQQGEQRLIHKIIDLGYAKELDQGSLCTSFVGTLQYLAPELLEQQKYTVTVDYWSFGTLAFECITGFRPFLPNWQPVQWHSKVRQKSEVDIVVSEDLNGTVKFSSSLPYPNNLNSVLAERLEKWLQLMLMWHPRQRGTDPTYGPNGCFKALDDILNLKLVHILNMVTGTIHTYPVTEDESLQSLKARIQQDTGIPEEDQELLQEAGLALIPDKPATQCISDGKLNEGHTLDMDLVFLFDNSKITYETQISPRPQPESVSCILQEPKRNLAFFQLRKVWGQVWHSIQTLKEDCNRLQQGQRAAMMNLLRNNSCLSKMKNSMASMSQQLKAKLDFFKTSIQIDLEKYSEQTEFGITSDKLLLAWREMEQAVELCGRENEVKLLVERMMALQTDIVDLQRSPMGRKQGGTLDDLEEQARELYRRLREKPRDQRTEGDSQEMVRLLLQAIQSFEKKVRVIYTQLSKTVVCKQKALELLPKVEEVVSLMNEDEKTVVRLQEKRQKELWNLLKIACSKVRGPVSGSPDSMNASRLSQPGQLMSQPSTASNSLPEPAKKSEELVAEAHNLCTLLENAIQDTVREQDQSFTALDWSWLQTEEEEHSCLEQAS
Experimental: Alternately, the IKKβ kinase assay is performed in vitro using a Z′-LYTE™ Assay Kit-Ser/Thr 5 Peptide (Invitrogen, Cat.No. PV3178). All reactions (20 μL) are started by adding 0.8 μL of the test compound in a DMSO solution, 10 μL of Kinase/Peptide Mixture or Phospho-Peptide solution (Invitrogen, Cat.No. PV3219, diluted with 1.33× Kinase Buffer), 5 μL of 1.33× Kinase Buffer (Invitrogen, Cat.No. PV3189, 5× diluted with distilled water) or ATP Solution (5 μM), and 4.2 μL of distilled water. The 384-well assay plate (Corning, Cat.No. 3575) is mixed and incubated at room temperature for 1 hour. 10 μL of the Development Solution [Development Reagent B (Invitrogen, Cat.No. PV3296)/Development Buffer (Invitrogen, Cat.No. PV3127)=1:128] is then added to each well, mixed and incubated at room temperature for another 1 h. The kinase reaction is then stopped by adding 10 μL of the Stop Reagent (Invitrogen, Cat.No. PV3094), and the plate is read with a Wallac 1420 VICTOR^3 Multilabel Counter (PERKIN ELMER™) at 445 nm and 520 nm fluorescence. The assay has an MSR of 2.14. The compound is initially tested at 8 concentrations (10 μM) to 0.003 μM) using a 1:3 serial dilution scheme.

In the case of O=C(NC1CC1)c1cccc2[nH]c(-c3nc(N[C@@H]4CCC[C@@H]4O)ncc3Cl)cc12 [Example 1, 2-{5-Chloro-2-[(1R,2S)-2-hydroxycyclopentylamino]pyrimidin-4-yl}-N-cyclopropyl-1H-indole-4-carboxamide hydrochloride], the “Ave. Inhibition rate” value ([1]; Example 1 25 μM alone, 72 h, hydrochloride) is reported as 11.53%, the inhibition at 2.5 µM ([1]; Example 1 2.5 μM alone) is reported as -16.5% and the inhibition at 25 µM ([1]; Example 1 25 μM alone) is reported as 11.5%. For the same compound, the inhibition at 2.5 µM ([1]; TNFα 5 ng/mL + Example 1 2.5 μM) was 87.8% and the inhibition at 25 µM ([1]; Vincristine 0.15 μM + Example 1 25 μM) was 80.2%.
Cl.O=C(NC1CC1)c1cccc2[nH]c(-c3nc(N[C@@H]4CCC[C@H]4O)ncc3Cl)cc12 [Example 2, 2-{5-Chloro-2-[(1R,2R)-2-hydroxycyclopentylamino]pyrimidin-4-yl}-N-cyclopropyl-1H-indole-4-carboxamide hydrochloride] showed an IC50 [2] of 58.1 nM.
